Test: Stroke statin response (SSR) in the PROSPER pravastatin trial: pravastatin-treated versus placebo-treated, by SNP genotype
Assay type: in vivo, human
Details: for HR_RESP_unadj (hazard ratio, pravastatin-treated versus placebo-treated): endpoint stroke; for EVENTS_RESP (number of stroke events): pravastatin arm
Text: (hCV26505812) for association with SSR in CARE (Table 37) and PROSPER (Table 38), including both unadjusted and adjusted analyses (adjusted for factors such as age, gender, smoking status, hypertension, diabetes, BMI, and LDL and HDL levels). Table 37 provides results in CARE, and Table 38 provides results in PROSPER (whether each analysis is unadjusted or adjusted is indicated in the “adjust” column in Table 37, or by “unadj” and “adj” column labels in Tables 38). With respect to Tables 22-32 and 37-38, the columns labeled “Genotype” (in Tables 22-28 and 37), “Geno_Placebo” (in Tables 29-30 and 38), and “Geno_Resp” (in Tables 31-32 and 38) indicate the genotype which the given stroke risk or SSR results correspond to. […] In Tables 29-32 and 38, the columns labeled “LOWER_PLACEBO” and “UPPER_PLACEBO” (Tables 29-30 and 38), and “LOWER_RESP” and “UPPER_RESP” (Tables 31-32 and 38), refer to the lower and upper 95% confidence intervals for the hazard ratios. See Example Six below for further information relating to Tables 22-32 and 37-38. […] As used herein, the term “benefit” (with respect to a preventive or therapeutic drug treatment) is defined as achieving a reduced risk for a disease that the drug is intended to treat or prevent (e.g., stroke) by administrating the drug treatment, compared with the risk for the disease in the absence of receiving the drug treatment (or receiving a placebo in lieu of the drug treatment) for the same genotype. The term “benefit” may be used herein interchangeably with terms such as “respond positively” or “positively respond”. For stroke risk and statin response associations based on samples from the CARE and PROSPER trials described herein, stroke risk is assessed by comparing the risk of stroke for a given genotype with the risk of stroke for a reference genotype either in the placebo arm of the trial or in the whole study population of the trial, and statin response is assessed by comparing the risk of stroke in the pravastatin arm of the trial with the risk of stroke in the placebo arm of the trial for the same genotype. […] Example Five above describes the analysis of these 61 SNPs plus 17 additional SNPs in the German West Study. […] In PROSPER, SNPs were analyzed for association with stroke risk or SSR, in the whole study cohort (strata: “ALL”), or in the subgroup with a history of CVD (strata: “hist”) or without a CVD history (strata: “no hist”). […] Also in the CARE and PROSPER trials, the chromosome 9p21 SNP […] (hCV26505812) was analyzed further for association with SSR, including unadjusted and adjusted analysis. Adjusted analysis in CARE (Table 37) was adjusted for age, gender, smoking status, hypertension, diabetes, body mass index (BMI), and LDL and HDL levels, and adjusted analysis in PROSPER (Table 38) was adjusted for country, gender, age, LDL, HDL, smoking status (current vs. past or never), history of hypertension, and diabetes. Table 37 provides results in CARE, and Table 38 provides results in PROSPER (whether each analysis is unadjusted or adjusted is indicated in the “adjust” column in Table 37, or by “unadj” and “adj” column labels in Tables 38). All the p-values (including Pint values) provided in Tables 37-38 are two-sided p-values.

[1] = hCV1348610 rs3739636 C9orf46, GENO_RESP AA + AG, MODE DOM, STRATA hist
[2] = hCV1348610 rs3739636 C9orf46, GENO_RESP AA, MODE GEN, STRATA hist
[3] = hCV1348610 rs3739636 C9orf46, GENO_RESP AG, MODE GEN, STRATA hist
[4] = hCV1348610 rs3739636 C9orf46, GENO_RESP GG, MODE GEN, STRATA hist
[5] = hCV2091644 rs1010 VAMP8, GENO_RESP CC, MODE GEN, STRATA no hist
[6] = hCV2091644 rs1010 VAMP8, GENO_RESP CT, MODE GEN, STRATA no hist
[7] = hCV2091644 rs1010 VAMP8, GENO_RESP TT, MODE GEN, STRATA no hist

Structure (SMILES): CC[C@H](C)C(=O)O[C@H]1C[C@H](O)C=C2C=C[C@H](C)[C@H](CC[C@@H](O)C[C@@H](O)CC(=O)O)[C@H]21 [pravastatin]
- HR_RESP_unadj (hazard ratio, pravastatin-treated versus placebo-treated) (PROSPER, rs10757274 genotype AA + AG, mode REC, strata ALL, unadjusted): 0.919
- HR_RESP_unadj (hazard ratio, pravastatin-treated versus placebo-treated) (PROSPER, rs10757274 genotype AA + AG, mode REC, strata hist, unadjusted): 0.885
- HR_RESP_unadj (hazard ratio, pravastatin-treated versus placebo-treated) (PROSPER, rs10757274 genotype AA + AG, mode REC, strata no hist, unadjusted): 0.927
- HR_RESP_unadj (hazard ratio, pravastatin-treated versus placebo-treated) (PROSPER, rs10757274 genotype AA, mode GEN, strata ALL, unadjusted): 1.330
- HR_RESP_unadj (hazard ratio, pravastatin-treated versus placebo-treated) (PROSPER, rs10757274 genotype AA, mode GEN, strata hist, unadjusted): 1.093
- HR_RESP_unadj (hazard ratio, pravastatin-treated versus placebo-treated) (PROSPER, rs10757274 genotype AA, mode GEN, strata no hist, unadjusted): 1.570
- HR_RESP_unadj (hazard ratio, pravastatin-treated versus placebo-treated) (PROSPER, rs10757274 genotype AG, mode GEN, strata ALL, unadjusted): 0.777
- HR_RESP_unadj (hazard ratio, pravastatin-treated versus placebo-treated) (PROSPER, rs10757274 genotype AG, mode GEN, strata hist, unadjusted): 0.816
- HR_RESP_unadj (hazard ratio, pravastatin-treated versus placebo-treated) (PROSPER, rs10757274 genotype AG, mode GEN, strata no hist, unadjusted): 0.698
- HR_RESP_unadj (hazard ratio, pravastatin-treated versus placebo-treated) (PROSPER, rs10757274 genotype GG + AG, mode DOM, strata ALL, unadjusted): 0.864
- HR_RESP_unadj (hazard ratio, pravastatin-treated versus placebo-treated) (PROSPER, rs10757274 genotype GG + AG, mode DOM, strata hist, unadjusted): 0.892
- HR_RESP_unadj (hazard ratio, pravastatin-treated versus placebo-treated) (PROSPER, rs10757274 genotype GG + AG, mode DOM, strata no hist, unadjusted): 0.813
- HR_RESP_unadj (hazard ratio, pravastatin-treated versus placebo-treated) (PROSPER, rs10757274 genotype GG, mode GEN, strata ALL, unadjusted): 1.082
- HR_RESP_unadj (hazard ratio, pravastatin-treated versus placebo-treated) (PROSPER, rs10757274 genotype GG, mode GEN, strata hist, unadjusted): 1.098
- HR_RESP_unadj (hazard ratio, pravastatin-treated versus placebo-treated) (PROSPER, rs10757274 genotype GG, mode GEN, strata no hist, unadjusted): 1.068
- HR (hazard ratio) for stroke events, pravastatin-treated versus placebo-treated (PROSPER, heterozygous carriers of SNP rs10757274 (chromosome 9p21), unadjusted): 0.777
- EVENTS_RESP (number of stroke events) (PROSPER, genotype AA + AG, mode REC, strata ALL): 150
- EVENTS_RESP (number of stroke events) (PROSPER, genotype AA + AG, mode REC, strata hist): 87
- EVENTS_RESP (number of stroke events) (PROSPER, genotype AA + AG, mode REC, strata no hist): 63
- EVENTS_RESP (number of stroke events) (PROSPER, genotype AA, mode GEN, strata ALL): 56
- EVENTS_RESP (number of stroke events) (PROSPER, genotype AA, mode GEN, strata hist): 28
- EVENTS_RESP (number of stroke events) (PROSPER, genotype AA, mode GEN, strata no hist): 28
- EVENTS_RESP (number of stroke events) (PROSPER, genotype AG, mode GEN, strata ALL): 94
- EVENTS_RESP (number of stroke events) (PROSPER, genotype AG, mode GEN, strata hist): 59
- EVENTS_RESP (number of stroke events) (PROSPER, genotype AG, mode GEN, strata no hist): 35
- EVENTS_RESP (number of stroke events) (PROSPER, genotype GG + AG, mode DOM, strata ALL): 145
- EVENTS_RESP (number of stroke events) (PROSPER, genotype GG + AG, mode DOM, strata hist): 86
- EVENTS_RESP (number of stroke events) (PROSPER, genotype GG + AG, mode DOM, strata no hist): 59
- EVENTS_RESP (number of stroke events) (PROSPER, genotype GG, mode GEN, strata ALL): 51
- EVENTS_RESP (number of stroke events) (PROSPER, genotype GG, mode GEN, strata hist): 27
- EVENTS_RESP (number of stroke events) (PROSPER, genotype GG, mode GEN, strata no hist): 24
- EVENTS_RESP [1]: 71
- HR_RESP (hazard ratio, pravastatin-treated versus placebo-treated) [1]: 0.8064
- EVENTS_RESP [2]: 24
- HR_RESP (hazard ratio, pravastatin-treated versus placebo-treated) [2]: 0.9861
- EVENTS_RESP [3]: 47
- HR_RESP (hazard ratio, pravastatin-treated versus placebo-treated) [3]: 0.7406
- EVENTS_RESP [4]: 43
- HR_RESP (hazard ratio, pravastatin-treated versus placebo-treated) [4]: 1.277
- EVENTS_RESP (hCV2091644 rs1010 VAMP8, GENO_RESP CC + CT, MODE DOM, STRATA no hist): 50
- EVENTS_RESP [5]: 13
- HR_RESP (hazard ratio, pravastatin-treated versus placebo-treated) [5]: 0.6359
- EVENTS_RESP [6]: 37
- HR_RESP (hazard ratio, pravastatin-treated versus placebo-treated) [6]: 0.8504
- EVENTS_RESP [7]: 36
- HR_RESP (hazard ratio, pravastatin-treated versus placebo-treated) [7]: 1.358
- EVENTS_RESP (hCV2169762 rs1804689 HPS1, GENO_RESP GG + GT, MODE REC, STRATA hist): 109
- EVENTS_RESP (hCV2169762 rs1804689 HPS1, GENO_RESP GG, MODE GEN, STRATA hist): 62
